From the kinase profiling compilation of Christmann-Franck et al. (2016)

Tests used:
Experiment in all cases: Caliper, Mobility shift assay off-chip
AKT2 (human) = AKT2 (human) (UniProt P31751)
CDK3 CCNE1 (human) = CDK3 CCNE1 (human) (UniProt P24864+Q00526)
CDK7 CCNH MNAT1 (human) = CDK7 CCNH MNAT1 (human) (UniProt P50613+P51948+P51946)
[1] = tested on: CHEK2 (human), O96017 [I157T]
CLK3 (human) = CLK3 (human) (UniProt P49761)
CSF1R (human) = CSF1R (human) (UniProt P07333)
CSNK1G1 (human) = CSNK1G1 (human) (UniProt Q9HCP0)
CSNK1G3 (human) = CSNK1G3 (human) (UniProt Q9Y6M4)
EPHA3 (human) = EPHA3 (human) (UniProt P29320)
EPHA7 (human) = EPHA7 (human) (UniProt Q15375)
FLT4 (human) = FLT4 (human) (UniProt P35916)
FRK (human) = FRK (human) (UniProt P42685)
GCK (human) = GCK (human) (UniProt Q12851)
GSK3A (human) = GSK3A (human) (UniProt P49840)
GSK3B (human) = GSK3B (human) (UniProt P49841)
INSR (human) = INSR (human) (UniProt P06213)
JAK2 JH1 JH2 (human) = JAK2 JH1 JH2 (human) (UniProt O60674)
JAK3 JH1 JH2 (human) = JAK3 JH1 JH2 (human) (UniProt P52333)
[2] = tested on: KIT (human), P10721 [V654A]
LCK (human) = LCK (human) (UniProt P06239)
MAP2K7 (human) = MAP2K7 (human) (UniProt O14733)
MAP3K5 (human) = MAP3K5 (human) (UniProt Q99683)
MAP3K7 (human) = MAP3K7 (human) (UniProt O43318)
MAPK1 (human) = MAPK1 (human) (UniProt P28482)
MAPK10 (human) = MAPK10 (human) (UniProt P53779)
MAPK8 (human) = MAPK8 (human) (UniProt P45983)
Chain of MAPK8 (human) (P45983 whole entry, looked up): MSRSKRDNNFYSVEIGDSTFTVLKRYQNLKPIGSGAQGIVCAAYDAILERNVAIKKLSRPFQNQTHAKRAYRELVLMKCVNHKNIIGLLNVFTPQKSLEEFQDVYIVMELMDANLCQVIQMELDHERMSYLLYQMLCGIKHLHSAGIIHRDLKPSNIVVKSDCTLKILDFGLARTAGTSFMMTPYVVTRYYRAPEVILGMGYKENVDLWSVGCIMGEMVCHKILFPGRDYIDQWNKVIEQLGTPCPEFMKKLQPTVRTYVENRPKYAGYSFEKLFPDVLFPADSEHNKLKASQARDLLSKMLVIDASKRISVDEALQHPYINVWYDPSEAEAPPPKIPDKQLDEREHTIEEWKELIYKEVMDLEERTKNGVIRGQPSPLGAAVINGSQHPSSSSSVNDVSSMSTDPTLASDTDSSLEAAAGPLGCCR

MAPK9 (human) = MAPK9 (human) (UniProt P45984)
PASK (human) = PASK (human) (UniProt Q96RG2)
[3] = tested on: PDGFRA (human), P16234 [V561D]
PDGFRB (human) = PDGFRB (human) (UniProt P09619)
PIM3 (human) = PIM3 (human) (UniProt Q86V86)
PRKD2 (human) = PRKD2 (human) (UniProt Q9BZL6)
PRKX (human) = PRKX (human) (UniProt P51817)
ROCK2 (human) = ROCK2 (human) (UniProt O75116)
RPS6KA6 KD1 KD2 (human) = RPS6KA6 KD1 KD2 (human) (UniProt Q9UK32)
SRPK1 (human) = SRPK1 (human) (UniProt Q96SB4)
Chain of SRPK1 (human) (Q96SB4 whole entry, looked up): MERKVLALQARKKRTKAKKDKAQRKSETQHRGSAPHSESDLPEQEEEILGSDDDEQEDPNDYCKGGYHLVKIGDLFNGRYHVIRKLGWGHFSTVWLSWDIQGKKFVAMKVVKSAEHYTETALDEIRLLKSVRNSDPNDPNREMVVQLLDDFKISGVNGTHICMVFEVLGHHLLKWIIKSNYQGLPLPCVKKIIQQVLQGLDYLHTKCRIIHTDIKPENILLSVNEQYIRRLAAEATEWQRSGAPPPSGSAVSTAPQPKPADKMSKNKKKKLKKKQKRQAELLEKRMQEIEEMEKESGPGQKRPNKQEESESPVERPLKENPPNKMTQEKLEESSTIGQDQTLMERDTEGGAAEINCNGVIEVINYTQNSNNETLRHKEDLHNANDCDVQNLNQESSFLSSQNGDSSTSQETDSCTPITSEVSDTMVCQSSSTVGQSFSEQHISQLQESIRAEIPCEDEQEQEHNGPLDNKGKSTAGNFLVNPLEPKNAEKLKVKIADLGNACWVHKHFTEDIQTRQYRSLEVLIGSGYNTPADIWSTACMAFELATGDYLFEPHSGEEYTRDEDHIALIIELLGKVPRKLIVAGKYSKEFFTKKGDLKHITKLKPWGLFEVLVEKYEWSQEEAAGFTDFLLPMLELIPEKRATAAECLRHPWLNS

STK17A (human) = STK17A (human) (UniProt Q9UEE5)
STK4 (human) = STK4 (human) (UniProt Q13043)
Chain of STK4 (human) (Q13043 whole entry, looked up): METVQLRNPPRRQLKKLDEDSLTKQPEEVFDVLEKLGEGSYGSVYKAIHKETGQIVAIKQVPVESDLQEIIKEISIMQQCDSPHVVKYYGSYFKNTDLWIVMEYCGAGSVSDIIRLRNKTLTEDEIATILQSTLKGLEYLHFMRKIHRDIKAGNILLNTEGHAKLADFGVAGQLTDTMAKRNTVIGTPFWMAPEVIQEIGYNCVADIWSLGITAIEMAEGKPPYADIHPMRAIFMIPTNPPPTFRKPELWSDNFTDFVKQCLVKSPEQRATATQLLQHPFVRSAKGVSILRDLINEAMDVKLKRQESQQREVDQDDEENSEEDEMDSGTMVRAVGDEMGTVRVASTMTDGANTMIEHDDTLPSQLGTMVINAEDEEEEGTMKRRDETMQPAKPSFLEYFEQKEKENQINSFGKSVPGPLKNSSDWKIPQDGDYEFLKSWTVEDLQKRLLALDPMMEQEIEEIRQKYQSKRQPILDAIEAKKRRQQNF

TNK2 (human) = TNK2 (human) (UniProt Q07912); settings: compound 10.0 µM
WNK3 (human) = WNK3 (human) (UniProt Q9BYP7)
Chain of WNK3 (human) (Q9BYP7 whole entry, looked up): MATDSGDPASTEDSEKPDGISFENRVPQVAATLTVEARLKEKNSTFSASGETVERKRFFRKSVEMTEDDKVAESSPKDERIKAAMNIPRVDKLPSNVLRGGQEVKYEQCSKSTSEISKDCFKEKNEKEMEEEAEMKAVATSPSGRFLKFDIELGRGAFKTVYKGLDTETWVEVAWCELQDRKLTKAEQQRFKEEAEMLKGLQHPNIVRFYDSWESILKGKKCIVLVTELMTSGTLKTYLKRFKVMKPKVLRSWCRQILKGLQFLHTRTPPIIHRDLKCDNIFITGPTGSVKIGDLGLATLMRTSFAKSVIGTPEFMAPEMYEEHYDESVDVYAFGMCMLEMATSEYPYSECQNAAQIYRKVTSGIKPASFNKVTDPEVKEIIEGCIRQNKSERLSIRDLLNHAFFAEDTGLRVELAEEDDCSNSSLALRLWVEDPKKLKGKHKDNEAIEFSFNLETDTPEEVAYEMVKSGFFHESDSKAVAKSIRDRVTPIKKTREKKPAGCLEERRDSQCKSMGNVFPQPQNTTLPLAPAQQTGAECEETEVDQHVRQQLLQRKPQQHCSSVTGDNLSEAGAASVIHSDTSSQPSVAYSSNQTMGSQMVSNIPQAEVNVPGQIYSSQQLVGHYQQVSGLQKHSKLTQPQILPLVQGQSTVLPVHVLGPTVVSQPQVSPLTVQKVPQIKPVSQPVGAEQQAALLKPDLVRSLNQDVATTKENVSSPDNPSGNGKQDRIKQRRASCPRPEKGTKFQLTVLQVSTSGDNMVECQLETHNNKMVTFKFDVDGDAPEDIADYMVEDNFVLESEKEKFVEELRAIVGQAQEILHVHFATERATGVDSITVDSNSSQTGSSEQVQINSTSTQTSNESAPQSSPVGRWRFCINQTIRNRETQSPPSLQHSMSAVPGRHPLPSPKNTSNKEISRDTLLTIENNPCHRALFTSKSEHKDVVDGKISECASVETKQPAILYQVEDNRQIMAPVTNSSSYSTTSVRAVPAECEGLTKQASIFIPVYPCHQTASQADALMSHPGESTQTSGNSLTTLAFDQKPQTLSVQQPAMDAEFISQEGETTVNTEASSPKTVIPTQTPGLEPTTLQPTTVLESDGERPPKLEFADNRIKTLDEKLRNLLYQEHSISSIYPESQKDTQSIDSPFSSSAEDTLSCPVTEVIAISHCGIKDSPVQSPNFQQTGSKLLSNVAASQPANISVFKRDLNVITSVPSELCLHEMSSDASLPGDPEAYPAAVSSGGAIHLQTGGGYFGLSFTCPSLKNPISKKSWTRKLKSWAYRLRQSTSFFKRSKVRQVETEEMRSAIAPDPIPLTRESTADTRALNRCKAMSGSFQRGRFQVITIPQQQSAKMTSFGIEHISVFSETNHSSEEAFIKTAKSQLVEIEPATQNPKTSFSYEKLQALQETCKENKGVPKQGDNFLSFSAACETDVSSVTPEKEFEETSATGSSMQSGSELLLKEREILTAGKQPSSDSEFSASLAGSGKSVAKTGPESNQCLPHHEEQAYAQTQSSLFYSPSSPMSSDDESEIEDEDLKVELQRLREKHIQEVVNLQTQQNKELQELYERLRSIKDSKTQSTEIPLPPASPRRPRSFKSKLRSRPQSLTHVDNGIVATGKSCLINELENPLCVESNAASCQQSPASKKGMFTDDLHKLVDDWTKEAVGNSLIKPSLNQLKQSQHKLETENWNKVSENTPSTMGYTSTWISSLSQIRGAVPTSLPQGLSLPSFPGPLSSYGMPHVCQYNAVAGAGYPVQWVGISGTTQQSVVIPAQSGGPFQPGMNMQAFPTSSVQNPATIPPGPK

YES1 (human) = YES1 (human) (UniProt P07947)

Chain of CSF1R (human) (P07333 whole entry, looked up): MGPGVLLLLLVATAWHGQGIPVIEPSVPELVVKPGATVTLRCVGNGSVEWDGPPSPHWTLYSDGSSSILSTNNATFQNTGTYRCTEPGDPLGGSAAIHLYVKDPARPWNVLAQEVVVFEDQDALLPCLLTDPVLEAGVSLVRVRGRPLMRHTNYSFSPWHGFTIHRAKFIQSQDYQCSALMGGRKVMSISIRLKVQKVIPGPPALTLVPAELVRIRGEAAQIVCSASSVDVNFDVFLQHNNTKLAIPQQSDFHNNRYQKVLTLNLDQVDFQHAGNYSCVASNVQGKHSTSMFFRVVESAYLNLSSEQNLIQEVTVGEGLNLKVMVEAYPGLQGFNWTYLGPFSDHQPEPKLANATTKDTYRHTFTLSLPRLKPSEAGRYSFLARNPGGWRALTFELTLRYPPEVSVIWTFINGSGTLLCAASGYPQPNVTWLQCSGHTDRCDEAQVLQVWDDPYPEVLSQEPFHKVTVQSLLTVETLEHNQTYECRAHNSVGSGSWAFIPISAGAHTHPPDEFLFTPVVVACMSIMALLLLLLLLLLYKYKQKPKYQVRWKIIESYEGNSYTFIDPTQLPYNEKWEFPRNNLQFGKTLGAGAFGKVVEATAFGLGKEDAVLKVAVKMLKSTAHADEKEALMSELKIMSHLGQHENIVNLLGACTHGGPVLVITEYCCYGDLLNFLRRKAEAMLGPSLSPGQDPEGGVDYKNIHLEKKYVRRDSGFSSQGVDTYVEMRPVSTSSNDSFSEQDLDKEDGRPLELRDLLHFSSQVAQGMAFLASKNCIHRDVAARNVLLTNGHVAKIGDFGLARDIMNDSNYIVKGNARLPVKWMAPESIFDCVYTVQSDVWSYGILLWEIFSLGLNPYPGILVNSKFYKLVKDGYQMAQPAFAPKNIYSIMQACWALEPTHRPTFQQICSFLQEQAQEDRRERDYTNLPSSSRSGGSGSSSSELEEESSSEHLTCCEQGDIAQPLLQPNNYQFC
Chain of CDK3 CCNE1 (human) (P24864 whole entry, looked up): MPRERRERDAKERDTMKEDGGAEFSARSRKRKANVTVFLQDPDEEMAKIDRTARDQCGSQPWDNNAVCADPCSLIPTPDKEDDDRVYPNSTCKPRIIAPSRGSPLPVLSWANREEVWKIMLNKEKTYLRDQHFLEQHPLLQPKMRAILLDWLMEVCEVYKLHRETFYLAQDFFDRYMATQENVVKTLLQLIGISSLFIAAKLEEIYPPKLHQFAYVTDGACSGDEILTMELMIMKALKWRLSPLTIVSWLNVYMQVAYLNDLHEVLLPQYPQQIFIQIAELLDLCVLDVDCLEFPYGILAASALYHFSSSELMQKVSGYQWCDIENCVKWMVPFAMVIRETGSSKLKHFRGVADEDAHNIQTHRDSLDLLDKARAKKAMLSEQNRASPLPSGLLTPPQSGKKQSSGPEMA
Chain of CDK3 CCNE1 (human) (Q00526 whole entry, looked up): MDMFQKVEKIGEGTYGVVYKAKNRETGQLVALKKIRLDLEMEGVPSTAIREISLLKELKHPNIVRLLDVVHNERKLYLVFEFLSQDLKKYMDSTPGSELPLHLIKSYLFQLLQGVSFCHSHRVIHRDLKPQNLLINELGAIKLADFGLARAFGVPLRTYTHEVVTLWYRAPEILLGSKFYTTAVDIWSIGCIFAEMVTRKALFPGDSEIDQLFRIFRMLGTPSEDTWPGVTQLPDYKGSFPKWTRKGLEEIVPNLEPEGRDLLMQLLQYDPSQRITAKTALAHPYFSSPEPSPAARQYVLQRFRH

O=C(N[C@@H](COc1ccc2[nH]c(=O)[nH]c2c1)c1ccccc1)c1cccn(Cc2ccc(F)c(F)c2)c1=O
residual activity (AKT2 (human); compound 10.0 µM): 103% | residual activity (CDK3 CCNE1 (human); compound 10.0 µM): 113% | residual activity (CDK7 CCNH MNAT1 (human); compound 10.0 µM): 95% | residual activity ([1]; compound 10.0 µM): 90% | residual activity (CLK3 (human); compound 10.0 µM): 115% | residual activity (CSF1R (human); compound 10.0 µM): 107% | residual activity (CSNK1G1 (human); compound 10.0 µM): 102% | residual activity (CSNK1G3 (human); compound 10.0 µM): 99% | residual activity (EPHA3 (human); compound 10.0 µM): 118% | residual activity (EPHA7 (human); compound 10.0 µM): 103% | residual activity (FLT4 (human); compound 10.0 µM): 109% | residual activity (FRK (human); compound 10.0 µM): 96% | residual activity (GCK (human); compound 10.0 µM): 107% | residual activity (GSK3A (human); compound 10.0 µM): 102% | residual activity (GSK3B (human); compound 10.0 µM): 92% | residual activity (INSR (human); compound 10.0 µM): 98% | residual activity (JAK2 JH1 JH2 (human); compound 10.0 µM): 106% | residual activity (JAK3 JH1 JH2 (human); compound 10.0 µM): 98% | residual activity ([2]; compound 10.0 µM): 102% | residual activity (LCK (human); compound 10.0 µM): 108% | residual activity (MAP2K7 (human); compound 10.0 µM): 95% | residual activity (MAP3K5 (human); compound 10.0 µM): 99% | residual activity (MAP3K7 (human); compound 10.0 µM): 101% | residual activity (MAPK1 (human); compound 10.0 µM): 89% | residual activity (MAPK10 (human); compound 10.0 µM): 105% | residual activity (MAPK8 (human); compound 10.0 µM): 125% | residual activity (MAPK9 (human); compound 10.0 µM): 100% | residual activity (PASK (human); compound 10.0 µM): 111% | residual activity ([3]; compound 10.0 µM): 112% | residual activity (PDGFRB (human); compound 10.0 µM): 113% | residual activity (PIM3 (human); compound 10.0 µM): 97% | residual activity (PRKD2 (human); compound 10.0 µM): 110% | residual activity (PRKX (human); compound 10.0 µM): 107% | residual activity (ROCK2 (human); compound 10.0 µM): 109% | residual activity (RPS6KA6 KD1 KD2 (human); compound 10.0 µM): 113% | residual activity (SRPK1 (human); compound 10.0 µM): 104% | residual activity (STK17A (human); compound 10.0 µM): 116% | residual activity (STK4 (human); compound 10.0 µM): 103% | residual activity (TNK2 (human)): 101% | residual activity (WNK3 (human); compound 10.0 µM): 99% | residual activity (YES1 (human); compound 10.0 µM): 91%

Cc1n[nH]c2c1c(=O)n(CCCN)c1ccc(Cl)cc21
residual activity (AKT2 (human); compound 1.0 µM): 94% | residual activity (CDK3 CCNE1 (human); compound 1.0 µM): 96% | residual activity (CDK7 CCNH MNAT1 (human); compound 1.0 µM): 55% | residual activity (CSF1R (human); compound 1.0 µM): 55% | residual activity (EPHA3 (human); compound 1.0 µM): 99% | residual activity (GSK3A (human); compound 1.0 µM): 107% | residual activity (GSK3B (human); compound 1.0 µM): 105% | residual activity (INSR (human); compound 1.0 µM): 103% | residual activity (JAK2 JH1 JH2 (human); compound 1.0 µM): 100% | residual activity (JAK3 JH1 JH2 (human); compound 1.0 µM): 100% | residual activity (LCK (human); compound 1.0 µM): 82% | residual activity (MAP2K7 (human); compound 1.0 µM): 103% | residual activity (MAP3K5 (human); compound 1.0 µM): 117% | residual activity (MAP3K7 (human); compound 1.0 µM): 56% | residual activity (MAPK10 (human); compound 1.0 µM): 110% | residual activity (MAPK8 (human); compound 1.0 µM): 106% | residual activity (MAPK9 (human); compound 1.0 µM): 95% | residual activity (PDGFRB (human); compound 1.0 µM): 108% | residual activity (PRKD2 (human); compound 1.0 µM): 56% | residual activity (ROCK2 (human); compound 1.0 µM): 87% | residual activity (SRPK1 (human); compound 1.0 µM): 106% | residual activity (STK17A (human); compound 1.0 µM): 23% | residual activity (STK4 (human); compound 1.0 µM): 32% | residual activity (WNK3 (human); compound 1.0 µM): 111% | residual activity (YES1 (human); compound 1.0 µM): 77%

O=C(NCCCNc1nc(Nc2cccc(NC(=O)N3CCCC3)c2)ncc1I)c1cccs1
residual activity (AKT2 (human); compound 1.0 µM): 98% | residual activity (CDK3 CCNE1 (human); compound 1.0 µM): 89% | residual activity (CDK7 CCNH MNAT1 (human); compound 1.0 µM): 75% | residual activity ([1]; compound 1.0 µM): 71% | residual activity (CLK3 (human); compound 1.0 µM): 101% | residual activity (CSF1R (human); compound 1.0 µM): 86% | residual activity (CSNK1G1 (human); compound 1.0 µM): 112% | residual activity (CSNK1G3 (human); compound 1.0 µM): 87% | residual activity (EPHA3 (human); compound 1.0 µM): 114% | residual activity (EPHA7 (human); compound 1.0 µM): 131% | residual activity (FLT4 (human); compound 1.0 µM): 13% | residual activity (FRK (human); compound 1.0 µM): 93% | residual activity (GCK (human); compound 1.0 µM): 13% | residual activity (GSK3A (human); compound 1.0 µM): 68% | residual activity (GSK3B (human); compound 1.0 µM): 86% | residual activity (INSR (human); compound 1.0 µM): 91% | residual activity (JAK2 JH1 JH2 (human); compound 1.0 µM): 23% | residual activity (JAK3 JH1 JH2 (human); compound 1.0 µM): 2% | residual activity ([2]; compound 1.0 µM): 73% | residual activity (LCK (human); compound 1.0 µM): 76% | residual activity (MAP2K7 (human); compound 1.0 µM): 106% | residual activity (MAP3K5 (human); compound 1.0 µM): 65% | residual activity (MAP3K7 (human); compound 1.0 µM): 32% | residual activity (MAPK1 (human); compound 1.0 µM): 104% | residual activity (MAPK10 (human); compound 1.0 µM): 68% | residual activity (MAPK8 (human); compound 1.0 µM): 94% | residual activity (MAPK9 (human); compound 1.0 µM): 84% | residual activity (PASK (human); compound 1.0 µM): 103% | residual activity ([3]; compound 1.0 µM): 14% | residual activity (PDGFRB (human); compound 1.0 µM): 97% | residual activity (PIM3 (human); compound 1.0 µM): 116% | residual activity (PRKD2 (human); compound 1.0 µM): 75% | residual activity (PRKX (human); compound 1.0 µM): 70% | residual activity (ROCK2 (human); compound 1.0 µM): 59% | residual activity (RPS6KA6 KD1 KD2 (human); compound 1.0 µM): 103% | residual activity (SRPK1 (human); compound 1.0 µM): 100% | residual activity (STK17A (human); compound 1.0 µM): 3% | residual activity (STK4 (human); compound 1.0 µM): 91% | residual activity (WNK3 (human); compound 1.0 µM): 108% | residual activity (YES1 (human); compound 1.0 µM): 110%
